2 compounds from paper PMC9993459, “A novel selective spleen tyrosine kinase inhibitor SKI-O-703 (cevidoplenib) ameliorates lupus nephritis and serum-induced arthritis in murine models” (Clinical and Experimental Immunology, 2022) can be followed below.

One series concerns the target KOR. In words: Kinase assay (LANCE Ultra TR-FRET), KOR. Type of series: biochemical. The conditions noted are these: kinase activity, TR-FRET. As to the method:
Kinase assays were conducted in 384-well plates using LANCE ultra 66 time-resolved fluorescence resonance energy transfer (TR-FRET) methods, according to the manufacturer’s instructions (Perkin-Elmer). In brief, each kinase was pre-incubated with a serially diluted compound for 30 min, incubated with ULight poly-GT peptide substrate and ATP for up to 1 h. Thirty minutes after adding Eu-labeled anti-phosphopeptides Ab diluted in LANCE Detection Buffer, LANCE signals were measured with an EnVision multilabel reader (Perkin-Elmer).
(In TR-FRET formats the signal depends on donor and acceptor labels being close together.)

In the next series the test system is mouse primary B cells. In words: CP670-dilution proliferation assay, BCR crosslinking (anti-IgM) stimulated B cells. Type of series: cell-based. The conditions noted are these: up to 1 μM. How it is done: Splenic CD19^+ B cells from C57BL/6 mice were sorted by MACS (Milteny Biotec), stained with 3 μM cell proliferation dye eFluor 670 (CP670; eBioscience), and cultured for 72 h in the presence of either 10 μg/ml LPS (Sigma Aldrich) or 5 μg/ml anti-mouse IgM (Jackson Immuno Research Laboratories), 10 μg/ml anti-CD40 mAb (Biolegend) and 10 ng/ml IL-4 (Peprotech), and assayed by FACS. To detect apoptotic cells, unstimulated cells were cultured for 24 h, stained with Annexin V and 7-aminoactinomycin D (7-AAD), and assayed by FACS.
Figure 2: in vitro effects of SKI-O -703 on the proliferation, survival, and differentiation of B cells. Mouse primary B cells were labeled with CP670, and stimulated with either anti-IgM mAb, CD40L and IL-4 (A) or LPS (B) for 72 h in the presence or absence of SKI-O-703 and tofacitinib at the indicated concentrations; they were then assayed by FACS. (C and D) Mouse primary B cells were cultured as in A and B for 24 h, stained with Annexin V and 7-AAD, and assayed by FACS. Representative FACS profiles and graphs displaying mean Annexin V-positivity are shown. (E) Human primary B cells were stimulated with CpG ODN plus IL-2 (to detect IgM and IgG) or CpG ODN 2006 plus IFN-α (to detect IL-6) in the presence or absence of inhibitors. The culture supernatants were assayed by ELISA. Graphs are expressed as % positivity relative to the controls (without inhibitor). […]

In a further series the test system is human primary B cells. In words: IgM, IgG and IL-6 secretion by stimulated human primary B cells (ELISA). Type of series: cell-based. The conditions noted are these: human primary B cells. As to the method: Human CD19^+ B cells (Lonza) were pre-treated with inhibitors for 1 h and stimulated for 24 h with 50 nM CpG ODN 2006 plus 10 ng/ml IL-2 or 1 μM CpG ODN 2006 plus 20 ng/ml IFN-α. Culture supernatants were assayed by ELISA to detect secreted IgG, IgM, and IL-6, according to the manufacturer’s instructions.
Figure 2: in vitro effects of SKI-O -703 on the proliferation, survival, and differentiation of B cells. Mouse primary B cells were labeled with CP670, and stimulated with either anti-IgM mAb, CD40L and IL-4 (A) or LPS (B) for 72 h in the presence or absence of SKI-O-703 and tofacitinib at the indicated concentrations; they were then assayed by FACS. (C and D) Mouse primary B cells were cultured as in A and B for 24 h, stained with Annexin V and 7-AAD, and assayed by FACS. Representative FACS profiles and graphs displaying mean Annexin V-positivity are shown. (E) Human primary B cells were stimulated with CpG ODN plus IL-2 (to detect IgM and IgG) or CpG ODN 2006 plus IFN-α (to detect IL-6) in the presence or absence of inhibitors. The culture supernatants were assayed by ELISA. Graphs are expressed as % positivity relative to the controls (without inhibitor). The data are representative of 2–3 independent experiments. *P < 0.05, **P < 0.01, and ***P < 0.001, compared with vehicle control by two-tailed unpaired Students t-tests.

The subject of another series is NZB/W F1 mice. In words: NZB/W mouse model of SLE / lupus nephritis, oral dosing. The class given is in vivo. The conditions noted are these: 30 mpk oral once daily. How it is done:
NZB/W female mice aged 18 weeks were assigned to four groups by distributing mice by body weight and anti-dsDNA IgG titer equivalently across the groups. Each group of mice was administered orally with 42 mg per kg body weight (mpk) of SKI-O-703 dissolved in 50 mM citric acid, 84 mpk of SKI-O-703, 30 mpk of tofacitinib (Selleckchem) dissolved in 0.5% carboxymethyl cellulose (Sigma Aldrich) containing 0.025% Tween 20, or a mixture of the two vehicles. The drugs were given once daily up to 34 weeks of age. Body weight was measured every 2 weeks and serum was collected every 4 weeks. At the termination of the experiments (34 weeks of age), serum, urine, spleen, BM, and kidneys were removed post mortem and assayed by histopathological and biochemical methods as below. Levels of blood urea nitrogen (BUN) and creatinine were measured by Knotus (Incheon, Korea).
Kidneys removed from the NZB/W mice were fixed in 4% paraformaldehyde, embedded in paraffin, sectioned at 3 μm thickness, and stained with periodic acid-Schiff (PAS) and hematoxylin (Sigma Aldrich). […] Glomerular size was measured using Image J software. To assess the glomerular size and hypercellularity of each mouse, more than 20 glomeruli per mouse were individually examined and averaged.
Kidneys and spleens of NZB/W mice were embedded in OCT compound (Sakura Finetek, Torrance, CA, USA) and snap-frozen in liquid nitrogen. Frozen sections were fixed in acetone and blocked with 10% normal donkey serum (Sigma Aldrich). Kidney sections were stained with a 1:200 dilution of anti-IgG-biotin (Sigma Aldrich), anti-IgM-biotin (Southern Biotech) and anti-C3-biotin (Bioss), followed by reaction with 1:200-dilution of streptavidin-cy3 (Invitrogen). Spleen sections were stained with anti-GL7-FITC, anti-CD4-APC, and anti-IgD-PE (all from BD Biosciences or eBioscience). Fluorescence images were acquired using a TCS SP5 confocal microscope (Leica). The area of GCs composed with GL7^+ cells per image was calculated using ImageJ software (NIH, Bethesda, MD, USA).
Titers of anti-dsDNA IgG Ab were measured by ELISA, as described previously. In brief, sera were diluted 1/10 000 to 1/50 000 in PBS and applied to immunosorbent plates (Nunc) precoated with 5 μg/ml poly-L-lysine and 5 μg/ml thymic DNA (Sigma Aldrich). The serum containing the highest titer of anti-dsDNA IgG was serially diluted and used as standard. The plates were incubated with anti-mouse IgG-biotin (Sigma Aldrich) and streptavidin-HRP (BD Biosciences). The concentration of albumin in urine was measured by quantitative ELISA using a mouse albumin ELISA kit (Bethyl), according to the manufacturer’s instructions. The concentration of serum B-cell activating factor of the TNF family (BAFF) was quantitated using a BAFF/BLys/TNFSF13B ELISA Kit (R&D Systems).
Single-cell suspensions of spleen and LN cells were prepared as previously described. Joint tissues from hind paws of KSTA mice were dissected free of soft tissue and bones, digested with 100 μg/ml Liberase (Roche) for 45 min at 37 °C, and filtered through a 70-μm-pore cell strainer (SPL Life Sciences) to prepare single cell suspensions of synovial infiltrates. The single cell suspensions were stained with an appropriate combination of mAbs and analyzed by FACS. The mAbs used were: CD138-PE, B220-PerCP or -APC-cy7, FAS-PE, CD19-PerCP or -APC, CD21-FITC or -APC, CD43-APC, CD23-PE-cy7, CD8a-PE, CD25-APC-cy7, CXCR5-biotin, GL7-FITC, CD45.2-FITC, CD27-FITC, Ki-67-FITC, Gr-1-FITC, CD4-FITC or -APC-cy7, phospho-Syk-PE, CD11b-PE or -PerCP, PD-1-APC, CD44-APC-cy7, and F4/80-PerCP mAbs (all from BD Biosciences, eBioscience or Biolegend). Streptavidin-PerCP was purchased from BD Biosciences.
Splenic CD19^+ B cells from NZB/W mice were sorted by MACS, and lysed with Trizol reagent (Invitrogen) followed by standard methods of total RNA purification. The RNA was assayed by RT and quantitative PCR as described. […]

By IC50 is commonly meant the point on the concentration scale where inhibition reaches its midpoint. Read a high IC50 as weaker potency in that assay.

Regarding `COc1cc(Nc2ncc(F)c(Nc3ccc4c(n3)NC(=O)C(C)(C)O4)n2)cc(OC)c1OC` [R406, reference compound], at KOR, the IC50 was determined as 18.8 nM.
As to `C[C@@H]1CCN(C(=O)CC#N)C[C@@H]1N(C)c1ncnc2[nH]ccc12` [tofacitinib, reference compound], the “Proliferation and death of primary B and T cells” value in the series on mouse primary B cells was “did not significantly inhibit”. For the same compound, the IL-6 production entry in the series with human primary B cells (CpG ODN 2006 plus IFN-α) was “even increased IL-6 production”. In addition, the Ab production entry with human primary B cells (CpG ODN plus IL-2) was “minimal effect”. For the same compound, in the series with NZB/W F1 mice (18-34 weeks of age), the Body weights entry was “reduced both body weights and spleen weights”; the Spleen weights entry is “reduced both body weights and spleen weights”. Also, the “Serum anti-dsDNA IgG Ab titer” value with NZB/W F1 mice (trend to reduction at 26 and 30 weeks of age) is “did not reach statistical significance”.
